Experimental data reported in ChEMBL document CHEMBL3430912, “GSK Tres Cantos Anti-Kinetoplastid Screening (TCAKS) Data”.

Legend:
Trypanosoma cruzi [1] = assay: GSK_TCAKS: pIC50 Trypanosoma cruzi viability assay using beta-GAL activity. This assay was run at single shot at 5uM compound concentration per well. The biological reagents consisted of NIH-3T3 host cells and trypomastigotes parasitic cells; both cell types were set to a 3.3 * 10^5 cells/mL dilution in assay DMEM by means of a CASY cell counter device using a 60um capillary. 6 uL of the mixture were dispensed per well (about 1 * 10^3 host-cells and 1 * 10^3 parasites) with a Multidrop Combi dispenser. […] In all wells, the percentage of DMSO never exceeded 0.5%. Plates incubated for four days at 37C, 5% CO2. The substrate used for the assay fluorescence intensity (FLINT) readout was resorufin-beta-D-galactopiranoside (Sigma-Aldrich) at 5uM per well. It was diluted in PBS supplemented with the soft detergent Igepal (Fluka).; format: functional, organism-based, Mus musculus; details: Tulahuen, NIH3T3
Trypanosoma cruzi [2] = assay: (§1) GSK_TCAKS: pIC50 Trypanosoma cruzi Imaging: Infected Cells. […] Cells were then washed once with PBS before infection. T. cruzi trypomastigotes, collected at days 5 to 8 after infection from LLC-MK2 parasite infected cultures, were allowed to swim out for 4h at 37C from a centrifuged pellet (2,500 rpm/10 min/room temperature). Trypomastigotes were then collected and counted in a CASY Cell Counter. Trypomastigotes, in supplemented DMEM, were added to H9c2 cultures in a multiplicity of infection of 1 and incubated for 18 h. Cells were washed once with PBS before incubation of the infected H9c2 monolayer with trypsin (Life-Technologies) to detach cells from the flask. Cells were counted in a CASY Cell Counter using a 150 um capillary and their density set at 5 * 10^4 cells per mL in supplemented assay DMEM. Infected H9c2 were dispensed into 384-well poly-lysine coated assay plates at 50uL per well using a Multidrop Combi dispenser. After seeding them, the plates were incubated at 37C, 5% CO2 for 72h. Cultures were then fixed and stained by addition of 50 uL of a solution containing 8% formaldehyde and 4 uM DRAQ5 DNA dye (BioStatus, UK) per well. […] Five images were collected per well for reliable statistical analysis. Automated image analysis was performed with a script developed on Acapella High Content Imaging and Analysis Software (PerkinElmer). Output: percentage of infected cells per well as a second infection marker.; format: functional, organism-based, Rattus norvegicus; details: H9c2, 4 h
Trypanosoma cruzi [3] = assay: GSK_TCAKS: pIC50 Trypanosoma cruzi Imaging: Amastigotes/Cell. […] Cells were then washed once with PBS before infection. T. cruzi trypomastigotes, collected at days 5 to 8 after infection from LLC-MK2 parasite infected cultures, were allowed to swim out for 4h at 37C from a centrifuged pellet (2,500 rpm/10 min/room temperature). Trypomastigotes were then collected and counted in a CASY Cell Counter. Trypomastigotes, in supplemented DMEM, were added to H9c2 cultures in a multiplicity of infection of 1 and incubated for 18 h. Cells were washed once with PBS before incubation of the infected H9c2 monolayer with trypsin (Life-Technologies) to detach cells from the flask. Cells were counted in a CASY Cell Counter using a 150 um capillary and their density set at 5 * 10^4 cells per mL in supplemented assay DMEM. Infected H9c2 were dispensed into 384-well poly-lysine coated assay plates at 50uL per well using a Multidrop Combi dispenser. After seeding them, the plates were incubated at 37C, 5% CO2 for 72h. Cultures were then fixed and stained by addition of 50 uL of a solution containing 8% formaldehyde and 4 uM DRAQ5 DNA dye (BioStatus, UK) per well. […] Five images were collected per well for reliable statistical analysis. Automated image analysis was performed with a script developed on Acapella High Content Imaging and Analysis Software (PerkinElmer). Output: number of amastigotes per cell as infection level measurement.; format: functional, organism-based, Rattus norvegicus; details: H9c2, 4 h
Trypanosoma cruzi [4] = assay: as §1, with “H2C9” for “Trypanosoma cruzi”, “H9c2 Host Cardiomyocytes.” for “Infected Cells.”, “Number” for “percentage”, “H9c2 Host Cardiomyocytes nuclei to determine drug-related cytotoxicity.” for “infected cells per well as a second infection marker.”; format: functional, organism-based, Rattus norvegicus; details: H9c2, 4 h
Leishmania donovani [5] = assay: GSK_TCAKS: pIC50 Leishmania donovani viability assay using fluorescence intensity. Assay plates (1536-well) were prepared by adding 30nL per well of compound. For single shot assay, the final compound concentration was 5uM. […] Briefly, eGFP LdBOB axenic amastigotes were harvested, fixed and counted in a CASY cell counter (Roche-Applied Science). A final concentration of 1.5 * 10^5 cells per well were prepared in amastigote media containing 500 U/mL penicillin/streptomycin (Invitrogen) and 6uL was dispensed to each experimental well using a Multidrop Combi dispenser (Thermo Scientific). 6uL of assay media was dispensed to control columns used as reference for 100% compound response. Following incubation for 72 h at 37C, 5% CO2, 2 uL of resazurin was added to each well at a final concentration of 0.5 mM in phosphate buffered saline (PBS) with IGEPAL (Sigma-Aldrich), 0.05% (v/v).; format: functional, organism-based
Leishmania donovani [6] = assay: (§2) GSK_TCAKS: pIC50 Leishmania donovani Imaging: Infected Macrophages. Assay plates (384-well) were prepared by adding 250nL of compound to each well. For single shot assay, the final compound concentration was 5 uM. […] Automated image analysis was performed with a script developed on Acapella High Content Imaging and Analysis Software (PerkinElmer). Output: Percent of infected macrophage cells were reported for each well.; format: functional, organism-based, Homo sapiens; details: THP-1
Leishmania donovani [7] = assay: as §2, with “Amastigotes/Macrophages.” for “Infected Macrophages.”, “Average number” for “Percent”, “amastigotes per” for “infected”, “cell” for “cells”; format: functional, organism-based, Homo sapiens; details: THP-1
Leishmania donovani [8] = assay: as §2, with “THP-1 Host” for “Infected”, “THP-1 cell count” for “Percent of infected macrophage cells”; format: functional, organism-based, Homo sapiens
[9] = tested on: Trypanosoma brucei brucei; assay: GSK_TCAKS: pIC50 Trypanosoma brucei viability assay using fluorescence intensity. Assay plates (1536-well) were prepared by dispensing 25nL of compound solution per well using an Echo acoustic dispenser (Labcyte).; format: functional, organism-based; details: Lister 427, 2 h
[10] = tested on: Trypanosoma brucei brucei; assay: GSK_TCAKS: pIC50 Trypanosoma brucei viability assay using luminiscence. Assay plates (1536-well) were prepared. T. brucei cultures were harvested and counted in a CASY cell counter. A parasite suspension was prepared at a final concentration of 5 * 10^4 cells/mL in complete HMI9 medium and 6uL was dispensed to all wells containing compounds using a Multidrop Combi dispenser. 6uL of HMI9 media with 0.4% DMSO were dispensed to control columns. Plates were incubated for 24 h at 37C, 5% CO2 then tempered for 10 min at room temperature. ATP content was quantified by adding 4 uL of CellTiter-Glo Reagent (Promega) according to the manufacturer's instructions. Luminescence was measured using a ViewLux.; format: functional, organism-based; details: Lister 427, CASY
[11] = GSK_TCAKS: pIC50 HepG2 human cell line viability assay using luminiscence. […] Seeding density was checked to ensure that new mono-layers were not more than 50% confluent at the time of harvesting. Cell suspension was added to 500 mL of the same medium at a final density of 1.2 * 10^5 cells/mL. This cell suspension was dispensed (25 uL, 3000 cells per well) into 384-well clear-bottom plates using a Multidrop Combi dispenser. Prior to addition of the cell suspension, the screening compounds (250 nL) were pre-dispensed into the plates with an Echo liquid handler. Plates were incubated for 48 h at 37C, 5% CO2. After incubation, plates equilibrated at room temperature for 30 min before proceeding to develop the luminescent signal. The signal developer, CellTiter-Glo Reagent, was allowed to equilibrate at room temperature for 30 min and added to the plates (25uL per well) using a Multidrop Combi dispenser. Plates were left for 10 min at room temperature for stabilization and then read using a ViewLux.; format: toxicity, cell-based
NIH3T3 = assay: GSK_TCAKS: pIC50 NIH 3T3 cell line viability assay using luminiscence. Tissue culture surface treated assay plates (1536-well) were used. […] The 100% cells survival control was determined exposing the host-cells to a 0.5% DMSO concentration, whereas the 100% toxicity control was achieved by seeding the cells in presence of Amphotericin B at 50uM. Plates were incubated for four days at 37C, 5% CO2. The assay readout was developed by addition of 5uL of CellTiter-Glo Reagent following the manufacturer's instructions. Luminiscence was measured using a ViewLux.; format: functional, cell-based; details: Mus musculus, NIH3T3, 96 h
[12] = target: Sterol 14-alpha demethylase (Trypanosoma cruzi (strain CL Brener), UniProt Q7Z1V1); assay: GSK_TCAKS: pIC50 CYP51 from Trypanosoma cruzi.; format: functional
Sterol 14-alpha demethylase, sequence (Q7Z1V1 whole entry): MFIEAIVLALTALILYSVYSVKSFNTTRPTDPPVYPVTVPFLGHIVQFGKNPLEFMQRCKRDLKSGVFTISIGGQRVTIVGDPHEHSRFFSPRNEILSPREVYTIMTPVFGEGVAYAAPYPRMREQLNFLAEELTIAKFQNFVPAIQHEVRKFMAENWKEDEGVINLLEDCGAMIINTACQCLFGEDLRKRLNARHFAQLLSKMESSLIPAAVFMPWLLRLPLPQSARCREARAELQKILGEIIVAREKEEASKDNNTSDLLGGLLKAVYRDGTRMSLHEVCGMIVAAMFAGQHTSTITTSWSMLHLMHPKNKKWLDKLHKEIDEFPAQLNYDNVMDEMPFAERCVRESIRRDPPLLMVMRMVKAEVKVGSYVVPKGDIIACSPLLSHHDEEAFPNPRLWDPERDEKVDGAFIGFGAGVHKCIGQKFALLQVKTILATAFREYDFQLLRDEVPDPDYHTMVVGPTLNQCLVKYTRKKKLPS

Compound	IC50 (Trypanosoma cruzi [1]) [nM]	IC50 (Trypanosoma cruzi [2]) [nM]	IC50 (Trypanosoma cruzi [3]) [nM]	IC50 (Trypanosoma cruzi [4]) [µM]	IC50 (Leishmania donovani [5]) [µM]	IC50 (Leishmania donovani [6]) [µM]	IC50 (Leishmania donovani [7]) [µM]	IC50 (Leishmania donovani [8]) [µM]	IC50 [9] [µM]	IC50 [10] [µM]	IC50 at 48 h [11] [µM]	IC50 (NIH3T3) [µM]	IC50 [12] [nM]
CC(C)c1cc(C(=O)N2CCCC(c3cc4ncccc4[nH]3)C2)on1 (centres undefined)	2000	3160	1000	> 50.1	> 50.1	> 50.1	> 50.1	> 50.1	> 39.8	> 39.8	> 100	20	50100
O=C(NCc1nnc2n1CCCCC2)c1ccc(-c2ccc(F)cc2)o1	1410	1580	1000	> 50.1	> 50.1	> 50.1	> 50.1	> 50.1	0.126	0.251	> 100	> 50.1	79400
Fc1ccc(O[C@H]2C[C@H](NCc3cccc4cn[nH]c34)C2)cc1C(F)(F)F	794	200	158	7.94	20	7.94	7.94	10	7.94	10	25.1	12.6	126
c1cc(-c2ncc(-c3ccn[nH]3)s2)ccn1	178	251	251	> 50.1	> 50.1	> 50.1	10	> 50.1	20	> 39.8	> 100	> 50.1	39.8
CNc1c(C(N)=O)c(-c2ccc3scnc3c2)nn1CC(F)(F)F	126	251	158	> 50.1	> 50.1	> 50.1	> 50.1	> 50.1	31.6	> 39.8	> 100	20	> 100000
CNc1cncc(C2CCCN2C(=O)Cc2coc3cc(C)ccc23)n1 (centres undefined)	158	200	200	> 50.1	3.16	> 50.1	0.794	> 50.1	> 39.8	> 39.8	> 100	> 50.1	25.1
CNc1cncc(C2CCCN2C(=O)Cc2ccc3ccccc3c2)n1 (centres undefined)	79.4	158	158	> 50.1	> 50.1	> 50.1	> 50.1	> 50.1	> 39.8	> 39.8	> 100	> 50.1	100
O=C(NCCc1n[nH]c(-c2ccc(F)c(F)c2)n1)C1CCCCC1	2000	2510	1580	> 50.1	> 50.1	> 50.1	15.8	20	0.501	1	> 100	> 50.1	25100
